Source: patent US8686044B2, “Amide derivative, pest control agent containing the amide derivative, and use of the amide derivative” (Mitsui Chemicals Agro, Inc., priority 2008, dated 2014)

Experiments:
Assay type in all cases: in vivo
[1] = test system: Helicoverpa armigera; assay: Pesticidal test against Helicoverpa armigera (cabbage leaf disk dip); settings: foliar, 72 h, concentration 1 ppm, 2-stage larvae, examined after 3 days, 25° C., read-out: pesticidal rate
Outline: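 Cabbage leaf disks were dipped for 30 s in test solution at a set concentration and air-dried. Second-instar larvae were placed one per hole and held at 25 °C, with live and dead counts taken after 3 days. Five larvae per group were tested in two replicates.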

[2] = test system: Ctenocephalides Felis; assay: Insecticidal test for Ctenocephalides felis, Test Example 3 (dry film in glass tube, 0.96 ml, Table A5); settings: adults of Ctenocephalides felis, after 24 hours of exposure, in triplicate
Procedure: Insecticidal Test for Ctenocephalides felis
0.96 ml of a solution of acetone, the active ingredient, prepared to the prescribed concentration was added dropwise to a glass tube with a flat bottom (internal diameter: 3.6 cm, height: 12 cm), and the solvent was evaporated at room temperature to form a dry film of the agent on the bottom surface. About 10 adults of Ctenocephalides felis per glass tube were added, and they were contact-exposed to the test compound. After 24 hours of the exposure, the conditions of the adults were examined and classified into “alive” and “dead (including a moribund condition)” to determine the death rate was determined (in triplicate).
As the comparative compounds, the following Compounds (D) and (E) disclosed in WO2009/080203, and fipronil were used.

[3] = test system: Choristoneura magnanima; assay: Pesticidal test against Choristoneura magnanima (artificial feed dip); settings: 144 h, concentration 1 ppm, 2-stage larvae, examined after 6 days, 25° C., read-out: pesticidal rate
Outline: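 Thin artificial feed slices dipped 30 s in compound solution at a set concentration, air-dried, then offered to 2nd-stage larvae held at 25° C. Living and dead larvae counted after 6 days; five larvae per group, two replicates.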

[4] = test system: Adoxophyes honmai; assay: Pesticidal test against Adoxophyes honmai (artificial feed dip); settings: 144 h, concentration 1 ppm, 2-stage larvae, examined after 6 days, 25° C., read-out: pesticidal rate
Outline: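 Thin artificial feed slices dipped 30 s in test solution at a predetermined concentration, air-dried, then offered to 2nd-stage larvae. Kept at 25° C; live and dead larvae counted after 6 days. Five larvae per group, two replicates.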

[5] = test system: Plutella xylostella; assay: Pesticidal test against Plutella xylostella (cabbage leaf dip); settings: foliar, 144 h, concentration 1 ppm, 2-stage larvae, examined after 6 days, 25° C., read-out: pesticidal rate
Outline: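 Cabbage leaf pieces dipped 30 s in test solution at a predetermined concentration, air-dried, then offered to 2nd-instar larvae, five per group in duplicate. Held at 25° C; living and dead larvae counted after 6 days.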

[6] = test system: Ctenocephalides Felis; assay: Insecticidal test for Ctenocephalides felis, Test Example 1 (dry film in glass tube, 0.5 ml, Table A4); settings: adults; for pest or weed control at 0.1 µg/mL: Ctenocephalides felis, concentration 0.1 μg/ml, after 24 hours of the exposure, in triplicate, read-out: death rate
Procedure: Insecticidal Test for Ctenocephalides Felis
0.5 ml of a solution of acetone, the active ingredient, prepared to the prescribed concentration was added dropwise to a glass tube with a flat bottom (internal diameter: 2.6 cm, bottom area: 5.3 cm^2, height: 12 cm), and the solvent was evaporated at room temperature to form a dry film of the agent on the bottom surface. About 10 adults of Ctenocephalides Felis per glass tube were added, and the adults were contact-exposed to the test compound. After 24 hours of the exposure, the conditions of the adults were examined and classified into “alive” and “dead (including a moribund condition)” to determine the death rate (in triplicate).
As the comparative compounds, the following Compounds (A), (B), and (C) disclosed in WO2009/080203, and fipronil were used.

[7] = test system: Musca domestica; assay: Pesticidal test against Musca domestica (petri dish dry film); settings: 24 h, concentration 100 ppm, female adults, examined after 1 day, 25° C., read-out: pesticidal rate
Outline: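 Dry film from 1 ml acetone solution of compound at a predetermined concentration, air-dried in a 9 cm petri dish; female adult flies released and dish capped. Held at 25° C; living and dead counted after 1 day. Five insects per group, two replicates.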

[8] = test system: Laodelphax striatellus; assay: Pesticidal test against Laodelphax striatellus (rice seedling spray); settings: 144 h, concentration 100 ppm, 3-stage larvae, examined after 6 days, 25° C., read-out: pesticidal rate
Outline: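 Rice seedlings sprayed with 2.5 ml acetone solution of compound at a predetermined concentration, air-dried, then infested with third-stage Laodelphax striatellus larvae in capped water-containing tubes at 25 °C. Living and dead insects counted after 6 days; ten larvae per group, two replicates.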

[9] = test system: Spodoptera litura; assay: Pesticidal test against Spodoptera litura (cabbage leaf dip); settings: foliar, 144 h, concentration 1 ppm, 2-stage larvae, examined after 6 days, 25° C., read-out: pesticidal rate
Outline: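 Cabbage leaf pieces dipped 30 seconds in compound solution at a predetermined concentration and air-dried, then offered to second-stage larvae, five per group in two replicates. Held at 25° C. Living and dead larvae counted after 6 days.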

SMILES | pest or weed control at 1 ppm [1] [%] | death rate ([2]; 0.03 μg/ml) [%] | death rate ([2]; 0.1 μg/ml) [%] | pest or weed control at 1 ppm [3] [%] | pest or weed control at 1 ppm [4] [%] | pest or weed control at 1 ppm [5] [%] | pest or weed control at 0.1 µg/mL [6] [%] | speed of effect as compared with the fipronil ([6]; compared with fipronil) | pest or weed control at 100 ppm [7] [%] | pest or weed control at 100 ppm [8] [%] | pest or weed control at 1 ppm [9] [%]
CN(C(=O)c1ccccc1)c1cccc(C(=O)Nc2c(Br)cc(C(F)(C(F)(F)F)C(F)(F)F)cc2C(F)(F)F)c1F [7-1574, N-(2-bromo-4-(perfluoropropan-2-yl)-6-(trifluoromethyl)phenyl)-2-fluoro-3-(N-methylbenzamide)benzamide] | ≥ 70 | 72.0 | 98.9 | ≥ 70 | ≥ 70 | ≥ 70 | 100 | immediate effect | ≥ 70 | ≥ 70 | ≥ 70
CN(C(=O)c1ccc(F)cc1)c1cccc(C(=O)Nc2c(I)cc(C(F)(C(F)(F)F)C(F)(F)F)cc2C(F)(F)F)c1F [7-1733, 2-fluoro-3-(4-fluoro-N-methylbenzamide)-N-(2-iodo-4-(perfluoropropan-2-yl)-6-(trifluoromethyl)phenyl)benzamide] | ≥ 70 | 21.1 | 91.6 | ≥ 70 | ≥ 70 | ≥ 70 | 100 |  | ≥ 70 | ≥ 70 | ≥ 70
